Assay [1] is described as follows: DRUGMATRIX: Calcium Channel Type L, Benzothiazepine radioligand binding (ligand: [3H] Diltiazem). It counts as cell membranes, Rattus norvegicus, Wistar, Brain, Membrane. The following applies: Not Active = under 50% inhibition at 10 µM.
Assay [2] addresses T1, Muscarinic acetylcholine receptor M4 (Homo sapiens, UniProt P08173).
T1 sequence (P08173 whole entry): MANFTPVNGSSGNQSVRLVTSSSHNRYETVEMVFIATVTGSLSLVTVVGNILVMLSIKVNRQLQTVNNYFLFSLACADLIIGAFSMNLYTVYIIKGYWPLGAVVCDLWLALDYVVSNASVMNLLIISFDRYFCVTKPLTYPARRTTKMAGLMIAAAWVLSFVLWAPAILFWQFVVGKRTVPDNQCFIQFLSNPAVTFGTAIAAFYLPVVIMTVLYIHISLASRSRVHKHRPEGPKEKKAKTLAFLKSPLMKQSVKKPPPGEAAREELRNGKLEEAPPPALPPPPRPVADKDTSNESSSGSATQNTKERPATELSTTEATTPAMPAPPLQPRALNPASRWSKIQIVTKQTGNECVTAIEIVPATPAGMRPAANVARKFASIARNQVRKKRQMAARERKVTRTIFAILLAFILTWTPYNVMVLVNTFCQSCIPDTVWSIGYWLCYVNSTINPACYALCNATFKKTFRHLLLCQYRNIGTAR
It counts as cell membranes, CHO-K1, Membrane. The following applies: for IC50: cho-k1.

Assay [3] addresses T2, Receptor-type tyrosine-protein phosphatase C (Homo sapiens, UniProt P08575).
T2 sequence (P08575 whole entry): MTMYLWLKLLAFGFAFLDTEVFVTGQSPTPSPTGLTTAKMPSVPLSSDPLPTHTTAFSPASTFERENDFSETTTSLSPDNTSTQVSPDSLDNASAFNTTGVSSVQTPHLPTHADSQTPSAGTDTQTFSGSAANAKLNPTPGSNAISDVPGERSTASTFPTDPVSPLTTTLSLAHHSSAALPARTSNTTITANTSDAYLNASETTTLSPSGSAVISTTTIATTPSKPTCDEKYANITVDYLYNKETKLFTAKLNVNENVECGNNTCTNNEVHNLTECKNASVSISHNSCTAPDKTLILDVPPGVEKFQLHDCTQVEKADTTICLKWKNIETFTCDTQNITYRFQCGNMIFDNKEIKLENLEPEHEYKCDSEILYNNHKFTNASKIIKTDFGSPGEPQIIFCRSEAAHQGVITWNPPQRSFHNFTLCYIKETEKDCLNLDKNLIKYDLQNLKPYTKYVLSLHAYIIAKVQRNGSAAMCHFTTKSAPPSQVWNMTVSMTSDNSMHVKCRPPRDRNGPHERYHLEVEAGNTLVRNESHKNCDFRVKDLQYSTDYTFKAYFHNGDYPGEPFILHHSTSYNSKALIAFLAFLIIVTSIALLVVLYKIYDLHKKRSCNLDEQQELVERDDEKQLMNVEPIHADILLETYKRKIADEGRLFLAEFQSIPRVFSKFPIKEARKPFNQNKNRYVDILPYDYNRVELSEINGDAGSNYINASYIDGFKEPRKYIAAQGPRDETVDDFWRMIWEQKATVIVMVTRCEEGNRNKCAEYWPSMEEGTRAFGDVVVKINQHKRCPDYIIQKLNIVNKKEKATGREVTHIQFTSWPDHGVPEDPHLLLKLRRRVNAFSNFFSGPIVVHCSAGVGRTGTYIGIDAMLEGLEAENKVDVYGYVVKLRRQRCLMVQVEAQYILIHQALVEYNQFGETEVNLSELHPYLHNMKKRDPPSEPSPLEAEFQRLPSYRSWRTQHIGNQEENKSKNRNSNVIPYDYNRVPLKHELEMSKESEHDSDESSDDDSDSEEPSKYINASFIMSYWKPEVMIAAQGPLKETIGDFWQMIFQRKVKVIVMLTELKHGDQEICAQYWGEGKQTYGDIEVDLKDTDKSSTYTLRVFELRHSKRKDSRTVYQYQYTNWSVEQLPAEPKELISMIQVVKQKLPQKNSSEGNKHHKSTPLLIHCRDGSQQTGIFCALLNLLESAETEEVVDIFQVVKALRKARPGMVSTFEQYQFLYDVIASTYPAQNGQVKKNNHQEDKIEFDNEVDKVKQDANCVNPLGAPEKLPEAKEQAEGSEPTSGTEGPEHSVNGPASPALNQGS
Also noted: species or system Escherichia coli.

The target of another assay is T3, Adenosine receptor A1 (Homo sapiens, UniProt P30542).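 Also: radioligand binding assay at the adenosine A1 receptor, with DPCPX serving as the labelled ligand; in other assays of this panel Not Active means under 50% inhibition at 10 µM.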
T3 sequence (P30542 whole entry): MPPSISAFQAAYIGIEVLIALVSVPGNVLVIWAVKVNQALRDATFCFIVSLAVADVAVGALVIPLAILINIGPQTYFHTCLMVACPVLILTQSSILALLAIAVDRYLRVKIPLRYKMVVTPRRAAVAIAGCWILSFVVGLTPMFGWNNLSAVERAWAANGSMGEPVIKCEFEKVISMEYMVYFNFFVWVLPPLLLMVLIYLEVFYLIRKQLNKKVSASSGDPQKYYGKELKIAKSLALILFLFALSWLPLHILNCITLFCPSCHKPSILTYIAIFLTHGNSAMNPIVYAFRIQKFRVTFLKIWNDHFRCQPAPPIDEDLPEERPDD
It counts as cell membranes, CHO, Membrane. The conditions noted are these: for pIC50: read-out: IC50; for pKi: read-out: Ki; for IC50: cho.

pIC50, pKi: −log10 of the molar value.

As usually defined, the pIC50 is −log10 of the IC50, conventionally taken in molar units. As usually defined, the pKi is the Ki on a negative log10 scale, so that one unit is a factor of ten. For `COc1cc(N)nc2[nH]c(-c3ccc(F)cc3)c(-c3ccncc3)c12`, in assay [1], the IC50 entry is recorded as “Not Active” and the Ki result is listed as “Not Active”. For the same molecule, the IC50 result in assay [2] is “Not Active”. Also, in assay [3], the IC50 entry is “Not Active”. In addition, on Adenosine receptor A1, the pIC50 is 6.05 and the pKi is 6.29.
For the molecule `CNS(=O)(=O)Cc1ccc2[nH]cc(CCN(C)C)c2c1`, the IC50 result (in assay [1]; in assay [2]; in assay [3]; at Adenosine receptor A1) was “Not Active” in each case. Also, the Ki result in assay [1] is listed as “Not Active”.
With `CCCc1nn(C)c2c(=O)[nH]c(-c3cc(S(=O)(=O)N4CCN(C)CC4)ccc3OCC)nc12`, in assay [1], the IC50 result is given as “Not Active” and the Ki result is given as “Not Active”. The IC50 entry in assay [2] is given as “Not Active”. Moreover, the IC50 result in assay [3] is recorded as “Not Active”. Moreover, at Adenosine receptor A1, the pIC50 was 5.83 and the pKi was 6.06.
On to `COc1ccc(/C=C/C(=O)Nc2ccccc2C(=O)O)cc1OC`, for which the IC50 result (in assay [1]; in assay [2]; in assay [3]; at Adenosine receptor A1) was “Not Active” throughout. Besides, the Ki entry in assay [1] is on record as “Not Active”.
For the molecule `CCOC(N)=O`, the IC50 result (in assay [1]; in assay [2]; in assay [3]; on Adenosine receptor A1) was “Not Active” each time. The Ki entry in assay [1] was “Not Active”.
Consider `CC(=O)Nc1nnc(S(N)(=O)=O)s1` [ACETAZOLAMIDE], for which the IC50 result (in assay [2]; in assay [3]; against Adenosine receptor A1) was “Not Active” each time.
For `O=c1[nH]c2ccccc2n1CCCN1CCC(n2c(=O)[nH]c3cc(Cl)ccc32)CC1` [DOMPERIDONE], the IC50 result (in assay [2]; in assay [3]; against Adenosine receptor A1) was “Not Active” each time.
Turning to `CC1=C(CC(=O)O)c2cc(F)ccc2/C1=C\c1ccc(S(C)(=O)=O)cc1` [EXISULIND], the IC50 result (in assay [1]; in assay [2]; in assay [3]; at Adenosine receptor A1) was “Not Active” throughout. For the same molecule, in assay [1], the Ki result is “Not Active”.
Turning to `CC(C)OC(=O)C(C)(C)Oc1ccc(C(=O)c2ccc(Cl)cc2)cc1` [FENOFIBRATE], the IC50 result (in assay [2]; in assay [3]; on Adenosine receptor A1) was “Not Active” in each case.
Turning to `OCCN1CCN(CCCN2c3ccccc3Sc3ccc(C(F)(F)F)cc32)CC1` [FLUPHENAZINE], the pIC50 in assay [2] (read-out: IC50) was 5.46. For the same molecule, the pKi in assay [2] (read-out: Ki) is 6.32. Further, the IC50 entry (in assay [3]; against Adenosine receptor A1) was “Not Active” each time.
Take `CN1C2CCCC1CC(NC(=O)c1nn(C)c3ccccc13)C2` (stereo unspecified) [GRANISETRON]: the IC50 entry (in assay [2]; in assay [3]; against Adenosine receptor A1) was “Not Active” in each case.
With `Nc1nc2c(c(=O)[nH]1)N(C=O)C(CNc1ccc(C(=O)N[C@@H](CCC(=O)O)C(=O)O)cc1)CN2` (stereo partly specified) [LEUCOVORIN], the IC50 result (in assay [1]; in assay [2]; in assay [3]; against Adenosine receptor A1) was “Not Active” in each case. Besides, in assay [1], the Ki entry was “Not Active”.
Take `C[C@@H](O)[C@H]1C(=O)N2C(C(=O)O)=C(S[C@@H]3CN[C@H](C(=O)N(C)C)C3)[C@H](C)[C@H]12` [MEROPENEM]: the IC50 entry (in assay [1]; in assay [2]; in assay [3]; against Adenosine receptor A1) was “Not Active” each time. Moreover, the Ki result in assay [1] is listed as “Not Active”.
In the case of `CC[C@@H](CO)NC(=O)[C@@H]1C=C2c3cccc4c3c(cn4C)C[C@H]2N(C)C1` [METHYSERGIDE], the IC50 result (in assay [2]; in assay [3]; against Adenosine receptor A1) was “Not Active” throughout.
Regarding `CCN(CC)CC#CCOC(=O)C(O)(c1ccccc1)C1CCCCC1` (stereo unspecified) [OXYBUTYNIN], the IC50 result (in assay [3]; against Adenosine receptor A1) was “Not Active” in each case.
`O=P(O)(O)C(O)(Cc1cccnc1)P(=O)(O)O` [RISEDRONIC ACID]: the IC50 entry (in assay [1]; in assay [2]; in assay [3]; at Adenosine receptor A1) was “Not Active” in each case. Also, the Ki result in assay [1] is “Not Active”.
For the molecule `CN(CCOc1ccc(CC2SC(=O)NC2=O)cc1)c1ccccn1` (stereo unspecified) [ROSIGLITAZONE], the IC50 result (in assay [1]; in assay [2]; in assay [3]; at Adenosine receptor A1) was “Not Active” in each case. The Ki entry in assay [1] was “Not Active”.
With `C=C(C)[C@H]1Cc2c(ccc3c2O[C@@H]2COc4cc(OC)c(OC)cc4[C@@H]2C3=O)O1` [ROTENONE], the IC50 result (in assay [1]; in assay [2]; in assay [3]; against Adenosine receptor A1) was “Not Active” in each case. Moreover, the Ki entry in assay [1] was “Not Active”.
Regarding `C#CCN(C)[C@H](C)Cc1ccccc1` [SELEGILINE], the IC50 entry (in assay [1]; in assay [2]; in assay [3]; against Adenosine receptor A1) was “Not Active” throughout. In addition, the Ki entry in assay [1] is listed as “Not Active”.
`CO[C@H]1C[C@@H]2CC[C@@H](C)[C@@](O)(O2)C(=O)C(=O)N2CCCC[C@H]2C(=O)O[C@H]([C@H](C)C[C@@H]2CC[C@@H](O)[C@H](OC)C2)CC(=O)[C@H](C)/C=C(\C)[C@@H](O)[C@@H](OC)C(=O)[C@H](C)C[C@H](C)/C=C/C=C/C=C/1C` [SIROLIMUS]: the IC50 result (in assay [1]; in assay [2]; in assay [3]; on Adenosine receptor A1) was “Not Active” throughout. Also, in assay [1], the Ki entry is given as “Not Active”.
For `CN[C@@H]1[C@H](O)[C@H](NC)[C@H]2O[C@@]3(O)C(=O)C[C@@H](C)O[C@H]3O[C@@H]2[C@H]1O` [SPECTINOMYCIN], the IC50 result (in assay [1]; in assay [2]; in assay [3]; against Adenosine receptor A1) was “Not Active” throughout. Moreover, the Ki result in assay [1] is “Not Active”.
Regarding `Nc1ccc(S(=O)(=O)Nc2ncccn2)cc1` [SULFADIAZINE], the IC50 result (in assay [1]; in assay [2]; in assay [3]; on Adenosine receptor A1) was “Not Active” each time. The Ki entry in assay [1] was “Not Active”.
With `COc1ncnc(NS(=O)(=O)c2ccc(N)cc2)c1OC` [SULFADOXINE], the IC50 result (in assay [1]; in assay [2]; in assay [3]; against Adenosine receptor A1) was “Not Active” throughout. In addition, the Ki entry in assay [1] was “Not Active”.
As for `Nc1ccc(S(=O)(=O)Nc2nccs2)cc1` [SULFATHIAZOLE], the IC50 result (in assay [1]; in assay [2]; in assay [3]; on Adenosine receptor A1) was “Not Active” each time. For the same molecule, in assay [1], the Ki entry is “Not Active”.
Turning to `O=c1n(CCCN2CCN(c3cccc(Cl)c3)CC2)nc2ccccn12` [TRAZODONE], the IC50 result (in assay [2]; in assay [3]; at Adenosine receptor A1) was “Not Active” each time.

(Values after ChEMBL document CHEMBL1909046, “DrugMatrix in vitro pharmacology data”.)
